Measured values reported in paper PMC6272548, “Synthesis and Antiplatelet Activity of Antithrombotic Thiourea Compounds: Biological and Structure-Activity Relationship Studies” (Molecules, 2015).

Legend:
[1] = Hemolysis assay (erythrocyte lysis); format: cell-based, human; conditions: human, erythrocyte suspension, pH 7.4; 3 h incubation; derivatives and ASA at 100 μM, TRITON at 1%
Experimental: Healthy erythrocytes were washed three times with PBS (pH 7.4) by centrifugation and suspended in the same buffer. All derivatives were incubated with the erythrocyte suspension for 3 h at 37 °C. The release of hemoglobin was determined by monitoring the optical density of the supernatant at 540 nm. The experiments were performed in triplicate and complete hemolysis (positive control) was determined using 1% Triton X-100. Hemolysis less than 10% indicated good hemocompatibility and non-toxicity of the molecules tested.

[2] = tested on: PGE2 production; assay: Measurement of plasma PGE2 levels by EIA in platelet-rich plasma; format: cell-based; conditions: human platelet-rich plasma
Experimental: The stable direct metabolite of PGE2, 13,14-dihydro-15-keto-Prostaglandin E2, is a known marker of the COX-1 activity. By the measurement of total levels of this PGE2 metabolite in human platelet-rich plasma, we evaluated the feasibility of antiplatelet N,N'-disubstituted thioureas to inhibit COX-1 activity in healthy platelets (Table 2).
Plasma samples containing 100 μM of each thiourea with antiplatelet activity were used to determine the concentrations of […], an index of in vitro COX-1 activity. Briefly, ozagrel (3 μL, 100 μM) were added to stop TXS activity and the aggregation were triggered with 10 μL of arachidonic acid (500 μM) in PRP samples containing each active derivative (100 μM) under stir conditions. After five minutes the suspensions were mixed with indomethacin (3 μL, 10 mM) stop-solution. By sonication for 1 min, platelets were disrupted and purification step were performed according to the manufacturer’s instructions (Cayman Chemical Co.). Plasma levels of PGE2 were measured in duplicate by competitive immunoassay using commercially available kits for EIA (PGE2 EIA Kit, Cayman Chemical Co.) according to the manufacturer’s instructions. A threshold of 25.75 ng/mL was defined as control plasma levels of PGE2 after platelet disrupture.

[3] = tested on: TXB2 production; assay: Measurement of plasma TXB2 levels by EIA in platelet-rich plasma; format: cell-based; conditions: Homo sapiens, Platelet
Experimental: Thromboxane B2 (TXB2), a stable TXA2 metabolite, is widely used as a prognostic risk marker of platelet activation in cardiovascular disease, which is closely related to COX-1 and Thromboxane Synthetase activity. Thus, the plasma levels of this metabolite were measured using an enzyme immunoassay (EIA) as described in the Experimental Section.
Plasma samples containing 100 μM of each thiourea with antiplatelet activity were used to determine the concentrations of thromboxane B2, an index of in vitro COX-1 activity. Briefly, 10 μL of arachidonic acid (500 μM) were added to platelet-rich plasma samples containing each active derivative (100 μM) under stir conditions. After five minutes the suspensions were mixed with 3 μL Indomethacin (10 mM) stop-solution. By sonication for 15 min, platelets were disrupted, and the resulting homogenates were centrifuged at 2000 g for 10 min to allow complete release of TXB2. Plasma levels of TXB2 were measured in duplicate by competitive immunoassay using commercially available kits from EIA Cayman (TXB2 EIA Kit, Cayman Chemical Co, Ann Arbor, MI, USA) according to the manufacturer’s instructions. A threshold of 25.75 ng/mL was defined as control plasma levels of TXB2 after platelet disrupture.

[4] = tested on: Escherichia coli; assay: SOS chromotest, spot test; format: cell-based
Experimental: The SOS chromotest (spot test) was performed according to Quillardet and Hofnung, using Escherichia coli (Table 6) strains PQ35 and PQ37. One hundred microliters of an overnight culture of the E. coli strains are diluted in 5 mL of LB medium and the culture is incubated at 37 °C in a gyratory incubator up to a concentration of 2 × 10^8 bacteria/mL. Fractions of 0.1 mL of the culture are then distributed into test tube with top agar, and the mixture is poured immediately on M63 medium plate. A sample of 10 µL of the thiourea derivatives is spotted onto the center of the plate. After overnight incubation at 37 °C, the presence of a blue ring around a zone of inhibition indicates genotoxic activity.

[5] = tested on: Salmonella typhimurium; assay: Reverse mutagenesis to histidine prototrophy (Ames test), spot test; conditions: without metabolic activation; 10 µM, 100 µM and 500 µM
Experimental: This assay was performed as described by Maron and Ames, using the histidine Salmonella typhimurium auxotroph mutant strains TA97, TA98, TA100 and the […] TA102 (Table 5).

Work on `CC(=O)Oc1ccccc1C(=O)O` [Aspirin, acetylsalicylic acid, reference compound] yielded a hemolysis at 3 h, 100 µM [1] of 2%, an inhibition at 100 µM [2] of 47.5 ± 1.4% and an inhibition at 100 µM [3] of 78.5 ± 5%. For the same compound, the “SOS Chromotest E. coli PQ35” value [4] was “-”, the “Ames Test S. typhimurium TA97” value [5] was “-” and the “Ames Test S. typhimurium TA98” value [5] was “-”. The “Ames Test S. typhimurium TA100” value [5] was “-” and the “Ames Test S. typhimurium TA102” value [5] was “-”.
